Reference: patent US11279733B2, “Peptide antibiotics” (priority 2017, dated 2022)
Like-named read-outs stand apart in the source and are kept apart here.

How the values were obtained:
[1] = test system: A. baumannii ATCC 19606
Summary of the method: (§1)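 Mid-log cultures grown in Mueller Hinton broth at 37° C were tested by 2-fold broth microdilution at 5×10^5 CFU/mL final. Compounds were dissolved in water and tested over a final range of 32 to 0.015 μg/mL.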

[2] = test system: A. baumannii GN_093 PmxR
Summary of the method: as §1

[3] = test system: E. coli ATCC 25922
Summary of the method: as §1

[4] = test system: K. pneumoniae ATCC 13883
Summary of the method: as §1

[5] = test system: K. pneumoniae ATCC 700603, MDR
Summary of the method: as §1

[6] = test system: K. pneumoniae ATCC BAA-2146, NDM-1 pos
Summary of the method: as §1

[7] = test system: K. pneumoniae GN_102 PmxR
Summary of the method: as §1

[8] = test system: K. pneumoniae GN_106, PmxR
Summary of the method: as §1

[9] = test system: P. aeruginosa ATCC 27853
Summary of the method: as §1

[10] = test system: P. aeruginosa GN_043, PmxR
Summary of the method: as §1

[11] = test system: P. aeruginosa GN_105, PmxR
Summary of the method: as §1

[12] = test system: S. aureus ATCC 25923, MSSA
Summary of the method: as §1

[13] = test system: HEK293 cells; experiment: Cytotoxicity, resazurin assay, HEK293
Summary of the method: (§2)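 Compound exposure lasted 24 h, following 24 h attachment of 4000 cells/well at 37° C under 5% CO2.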

[14] = test system: HepG2 cells; experiment: Cytotoxicity, resazurin assay, HepG2
Summary of the method: as §2

## polymyxin B sulfate [PolymyxinB, reference compound]
[1]
  MIC A. baumannii ATCC 19606: 0.25 µg/mL
[1]; A. baumannii ATCC 19606
  MIC A. baumannii ATCC 19606: 0.25 µg/mL
[1]; Table 5
  MIC, A. baumannii ATCC 19606: 0.25 µg/mL
[1]; Table 6
  MIC, A. baumannii ATCC 19606: 0.25 µg/mL
[2]
  MIC A. baumannii GN_093 PmxR: 64 µg/mL
[2]; A. baumannii GN_093 PmxR
  MIC A. baumannii GN_093 PmxR: 64 µg/mL
[2]; Table 5, polymyxin-resistant
  MIC, A. baumannii Cl Ptyela 10073 4512:2, PmxR: 64 µg/mL
[2]; Table 6, polymyxin-resistant
  MIC A. baumannii GN_093 PmxR: 64 µg/mL
[2]; polymyxin-resistant
  MIC A. baumannii GN_093 PmxR: 64 µg/mL
[2]; strain name as in Table 11
  MIC A. baumannii Cl Ptyela 10073 4512:2, PmxR: 64 µg/mL
[3]
  MIC E. coli ATCC 25922: 0.25 µg/mL
[3]; E. coli ATCC 25922
  MIC E. coli ATCC 25922: 0.25 µg/mL
[3]; Table 5
  MIC, E. coli ATCC 25922: 0.25 µg/mL
[3]; Table 6
  MIC, E. coli ATCC 25922: 0.25 µg/mL
[4]
  MIC K. pneumoniae ATCC 13883: 1 µg/mL
[4]; K. pneumoniae ATCC 13883
  MIC K. pneumoniae ATCC 13883: 1 µg/mL
[4]; Table 5
  MIC, K. pneumoniae ATCC 13883: 1 µg/mL
[4]; Table 6
  MIC, K. pneumoniae ATCC 13883: 1 µg/mL
[5]
  MIC K. pneumoniae ATCC 700603, MDR: 0.5 µg/mL
[5]; K. pneumoniae ATCC 700603, MDR
  MIC K. pneumoniae ATCC 700603, MDR: 0.5 µg/mL
[5]; Table 5
  MIC, K. pneumoniae ATCC 700603, MDR: 0.5 µg/mL
[5]; Table 6
  MIC, K. pneumoniae ATCC 700603, MDR: 0.5 µg/mL
[6]
  MIC K. pneumoniae ATCC BAA-2146, NDM-1 pos: 0.25 µg/mL
[6]; K. pneumoniae ATCC BAA-2146, NDM-1 pos
  MIC K. pneumoniae ATCC BAA-2146, NDM-1 pos: 0.25 µg/mL
[6]; Table 5
  MIC, K. pneumoniae ATCC BAA-2146, NDM-1 pos: 0.25 µg/mL
[6]; Table 6
  MIC, K. pneumoniae ATCC BAA-2146, NDM-1 pos: 0.25 µg/mL
[7]
  MIC K. pneumoniae GN_102 PmxR: 64 µg/mL
[7]; K. pneumoniae GN_102 PmxR
  MIC K. pneumoniae GN_102 PmxR: 64 µg/mL
[7]; Table 5, polymyxin-resistant
  MIC, K. pneumoniae Cl Koprana 10065 0661:1, PmxR: 64 µg/mL
[7]; Table 6, polymyxin-resistant
  MIC K. pneumoniae GN_102 PmxR: 64 µg/mL
[7]; polymyxin-resistant
  MIC K. pneumoniae GN_102 PmxR: 64 µg/mL
[7]; strain name as in Table 11
  MIC K. pneumoniae Cl Koprana 10065 0661:1 PmxR: 64 µg/mL
[8]
  MIC K. pneumoniae GN_106, PmxR: 64 µg/mL
[8]; K. pneumoniae GN_106, PmxR
  MIC K. pneumoniae GN_106, PmxR: 64 µg/mL
[8]; Table 5, polymyxin-resistant
  MIC, K. pneumoniae Cl 138-16347-20362, PmxR: 64 µg/mL
[8]; Table 6, polymyxin-resistant
  MIC K. pneumoniae GN_106, PmxR: 64 µg/mL
[8]; polymyxin-resistant
  MIC K. pneumoniae GN_106, PmxR: 64 µg/mL
[8]; strain name as in Table 11
  MIC K. pneumoniae Cl 183-16357-20352, PmxR: 64 µg/mL
[9]
  MIC P. aeruginosa ATCC 27853: 0.5 µg/mL
[9]; P. aeruginosa ATCC 27853
  MIC P. aeruginosa ATCC 27853: 0.5 µg/mL
[9]; Table 5
  MIC, P. aeruginosa ATCC 27853: 0.5 µg/mL
[9]; Table 6
  MIC, P. aeruginosa ATCC 27853: 0.5 µg/mL
[10]
  MIC P. aeruginosa GN_043, PmxR: 64 µg/mL
[10]; P. aeruginosa GN_043, PmxR
  MIC P. aeruginosa GN_043, PmxR: 64 µg/mL
[10]; Table 5, polymyxin-resistant
  MIC, P. aeruginosa FADDI-PA070, PmxR: 64 µg/mL
[10]; Table 6, polymyxin-resistant
  MIC P. aeruginosa GN_043, PmxR: 64 µg/mL
[10]; polymyxin-resistant
  MIC P. aeruginosa GN_043, PmxR: 64 µg/mL
[10]; strain name as in Table 11
  MIC, P. aeruginosa FADDI-PA070, PmxR: 64 µg/mL
[11]
  MIC P. aeruginosa GN_105, PmxR: >128 µg/mL
[11]; P. aeruginosa GN_105, PmxR
  MIC P. aeruginosa GN_105, PmxR: >128 µg/mL
[11]; Table 5, polymyxin-resistant
  MIC, P. aeruginosa PA9704, PmxR: >128 µg/mL
[11]; Table 6, polymyxin-resistant
  MIC P. aeruginosa GN_105, PmxR: >128 µg/mL
[11]; polymyxin-resistant
  MIC P. aeruginosa GN_105, PmxR: >128 µg/mL
[11]; strain name as in Table 11
  MIC P. aeruginosa PA9704, PmxR: >128 µg/mL
[12]
  MIC S. aureus ATCC 25923, MSSA: >64 µg/mL
[12]; S. aureus ATCC 25923, MSSA
  MIC S. aureus ATCC 25923, MSSA: >64 µg/mL
[12]; Table 5
  MIC, S. Aureus ATCC 25923, MSSA: >64 µg/mL
[12]; Table 6
  MIC, S. aureus ATCC 25923, MSSA: >64 µg/mL
[13]; read-out: HEK-293-CC50, HEK293, 24 h
  CC50: > 300 µM
[13]; read-out: HEK-293-CC50, HEK293 cells
  CC50: > 300 µM
[13]; read-out: HEK-293-CC50, Table 5, HEK293 cells
  CC50: > 300 µM
[13]; read-out: HEK-293-CC50, Table 6, HEK293 cells
  CC50: > 300 µM
[13]; read-out: HEK-293 CC50, HEK293 cells
  CC50: > 300 µM
[14]; read-out: Hep G2-CC50, HepG2, 24 h
  CC50: > 300 µM
[14]; read-out: Hep G2-CC50, HepG2 cells
  CC50: > 300 µM
[14]; read-out: Hep G2-CC50, Table 5, HepG2 cells
  CC50: > 300 µM
[14]; read-out: Hep G2-CC50, Table 6, HepG2 cells
  CC50: > 300 µM
[14]; read-out: Hep G2 CC50, HepG2 cells
  CC50: > 300 µM
